One compound from patent publication US20080009025A1, “PROTEIN KINASE REGULATION” (priority 1999, published 2008) can be followed below.

The target of experiment [1] is T1, PDK1 (Homo sapiens, UniProt O15530).
T1 sequence (O15530 1-556): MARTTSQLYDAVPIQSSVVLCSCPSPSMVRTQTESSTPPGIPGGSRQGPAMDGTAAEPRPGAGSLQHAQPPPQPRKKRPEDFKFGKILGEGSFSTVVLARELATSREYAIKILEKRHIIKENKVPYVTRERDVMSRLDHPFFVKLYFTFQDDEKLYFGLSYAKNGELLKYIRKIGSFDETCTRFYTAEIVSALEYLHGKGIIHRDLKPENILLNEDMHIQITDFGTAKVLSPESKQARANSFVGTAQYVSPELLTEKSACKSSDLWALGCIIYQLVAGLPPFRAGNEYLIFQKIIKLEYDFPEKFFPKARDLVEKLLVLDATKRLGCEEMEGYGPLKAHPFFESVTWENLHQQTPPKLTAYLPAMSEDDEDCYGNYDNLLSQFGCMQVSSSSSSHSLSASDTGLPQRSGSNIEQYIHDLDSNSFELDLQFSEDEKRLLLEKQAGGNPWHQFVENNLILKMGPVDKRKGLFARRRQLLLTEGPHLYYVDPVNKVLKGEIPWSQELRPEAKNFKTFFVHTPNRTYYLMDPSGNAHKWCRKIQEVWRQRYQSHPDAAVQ
The experiment can be described thus: Phosphorylation of p70 S6K at Thr412 by PDK1 in vitro (T412-P immunoblot). The settings on record: peptide 4 μM. Set-up: made in house; host or cells: 293 cells or E. coli. It counts as biochemical. How it is done: FIG. 2. PDK1 phosphorylates p70 S6K at Thr412 in vitro and this is inhibited by PIF. 0.5 μg of either wild type GST-p70 S6K-T2 (wt), T252A-GST-p70 S6K-T2 (252A) or T412A-GST-p70 S6K-T2 (412A) were incubated for 90 min at 30° C. with MgATP in the presence or absence of wild type (wt) or kinase-dead (kd) GST-PDK1 expressed in either 293 cells or bacteria in the presence (+) or absence (−) of the wild type PIF peptides (4 μM) in a final volume of 20 μl. The reactions were terminated by making the solutions 1% in SDS, the samples were subjected to SDS-polyacylamide gel electrophoresis, and the phosphorylation of p70 S6K at Thr412 was assessed by immunoblotting with the T-412P antibody. Similar results were obtained in three separate experiments.
Immunoblotting for dephosphorylated and Thr412-phosphorylated p70 S6 kinase. Cell lysates were made 1% SDS and the indicated amounts of protein were subjected to SDS/Polyacrylamide gel electrophoresis, subsequently transferred to nitrocellulose and immunoblotted using the indicated monoclonal antibody or the T412-P phospho-specific antibody (0.4 μg/ml) in 50 mM Tris/HCl pH7.5, 0.15M NaCl, 0.5% (by vol) Tween and 10% (by mass) skimmed milk. Detection was performed using the enhanced chemiluminescence reagent (Amersham Pharmacia Biotech).

Experiment [2] deals with T2, PDK1 (Homo sapiens, UniProt O15530).
T2 construct: Full length PDK1 (residues 1-556); made in house; host or cells: 293 cells
T2 sequence (O15530 52-556): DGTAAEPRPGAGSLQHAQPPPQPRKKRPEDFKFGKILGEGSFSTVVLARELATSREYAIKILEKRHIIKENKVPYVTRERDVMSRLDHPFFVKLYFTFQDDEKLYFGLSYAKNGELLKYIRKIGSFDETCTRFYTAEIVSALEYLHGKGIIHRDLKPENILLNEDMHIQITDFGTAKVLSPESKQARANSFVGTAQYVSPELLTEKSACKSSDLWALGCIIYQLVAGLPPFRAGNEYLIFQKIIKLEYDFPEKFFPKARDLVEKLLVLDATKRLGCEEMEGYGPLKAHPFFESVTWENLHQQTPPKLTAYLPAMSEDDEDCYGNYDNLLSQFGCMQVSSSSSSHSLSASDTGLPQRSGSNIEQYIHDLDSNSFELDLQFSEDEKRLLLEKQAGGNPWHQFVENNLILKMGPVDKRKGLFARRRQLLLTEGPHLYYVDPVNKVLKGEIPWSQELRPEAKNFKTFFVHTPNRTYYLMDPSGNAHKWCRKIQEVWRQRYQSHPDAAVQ
The experiment is described as follows: PDK1 activity towards synthetic peptide substrates T308tide or PDKtide. Type of experiment: biochemical. Particulars: substrate PDKtide. How it is done: FIG. 12. PDK1 is activated and stabilised through its interaction with PIFtide. (A) GST-PDK1 activity was measured in the presence of increasing concentrations of wild type (wt) PIFtide (closed circles) or a mutant D978A PIFtide (open circles) using the synthetic peptide substrate termed T308tide, as described in Material and Methods. The data was fitted to a hyperbola using the Kaleidagraph™ software. The connection needed to obtain 50% activation of PDK1 was […] for wt-PIFtide and 1.1 μM for D978A-PIFtide. The assay shown was performed in triplicate and there was less than 5% difference between each assay. Similar results were obtained in 2 further experiments (B)—The wild type GST-PDK1 (circles) or the L155D mutant of GST-PDK1 (squares) was incubated in the presence (closed symbols) or absence (open symbols) of […] PIFtife and then for 2 min at the indicated temperatures, rapidly brought to 0° C. (see Materials and Methods), and 2 min later assayed at 30° C. for 10 min using T308tide as substrate. The activity of PDK1 obtained by incubation at 30° C. was taken as 100%. The assay shown was performed in duplicate with similar results obtained in two separate experiments.
FIG. 14. […] (A) His-PDK1 was assayed for activity using as substrate the indicated concentration of either PDKtide (open triangles) or T308tide (open circles). (B) HIS-PDK1 was assayed for activity in the presence if PDKtide (25 μM closed triangles) or T308tide (100 μM closed circles) in the presence of the indicated concentrations of PIFtide. The assay was performed in triplicates with less than 5% difference between the triplicate samples. Similar results were obtained in 3 separate experiments.
PDK1's ability to phosphorylate Thr308 of PKBα was measured using a mutant of GST-PKBα in which Ser473 was mutated to Asp (GST-473D PKBα) in the presence of phospholipid vesicles containing sn-1-stearoyl-2-arachidonoyl-D-PtdIns (3, 4, 5)P3 [13]. The ability of wild type and mutant PDK1 to phosphorylate the synthetic peptides T308tide or PDKtide was carried out in 20 μl assays containing 50 mM Tris/HCl pH 7.5, 0.1% 2-mercaptoethanol 10 mM MgCl2, 100 μM [γ^32P]ATP (˜500 cpm/pmol) 0.5 μM microcystin-LR.PDK1 and the peptide concentrations indicated under Results. After incubation for 10 min at 30° C. the reaction was stopped by addition of 20 μl of 150 mM phosphoric acid. 35 μl of the resultant mixture was spotted into P81 phosphocellulose paper (2×2 cm) and the papers washed and analysed as described previously for assays of MAP kinase. […] Control assays were carried out in parallel in which either PDK1, or peptide substrate were omitted; these values were always less than 5% of the activity measured in the presence of these reagents. […]

Where a SMILES comes first, the peptide text is derived from it.

As for `CC[C@H](C)[C@H](NC(=O)[C@H](Cc1ccc(O)cc1)NC(=O)[C@H](CC(=O)O)NC(=O)[C@H](Cc1ccccc1)NC(=O)[C@H](CC(=O)O)NC(=O)[C@H](CCCNC(=N)N)NC(=O)[C@H](Cc1ccccc1)NC(=O)[C@H](CCSC)NC(=O)[C@H](CCC(=O)O)NC(=O)[C@H](CCC(N)=O)NC(=O)[C@H](CCC(=O)O)NC(=O)[C@H](CCC(=O)O)NC(=O)[C@H](CCC(=O)O)NC(=O)[C@H](CO)NC(=O)[C@H](CC(C)C)NC(=O)[C@@H](NC(=O)[C@H](CCCNC(=N)N)NC(=O)[C@@H]1CCCN1C(=O)[C@H](CCC(=O)O)NC(=O)[C@@H](N)CCCNC(=N)N)[C@@H](C)CC)C(=O)N[C@@H](C)C(=O)N[C@@H](CC(=O)O)C(=O)N[C@@H](Cc1c[nH]c2ccccc12)C(=O)N[C@@H](CS)C(=O)O` [PIFtide] (H-REPRILSEEEQEMFRDFDYIADWC-OH; N-terminus and C-terminus assumed), the “effect on phosphorylation of p70 S6K at Thr412 by PDK1” value on PDK1 [1] is recorded as “prevented”. Moreover, at PDK1 [2], the “effect on the activity of PDK1 towards PDKtide” value is “inhibited”.
